Data from the METLIN SMRT retention time set (Domingo-Almenara et al. 2019).

Assay: gradient 5% acetonitrile 3 min, to 50% in 2 min, to 85% in 15 min, held 3 min, 100 µL/min
Conditions: column: Zorbax Extend-C18 2.1 x 50 mm; eluents: water / acetonitrile, 0.1% formic acid
Method in brief: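 Mixtures of ~100 pure standards were chromatographed on a Zorbax Extend-C18 column (2.1 × 50 mm, 1.8 μm) at 100 μL/min using water and acetonitrile, each with 0.1% formic acid. Detection used a quadrupole time-of-flight mass spectrometer in positive and negative ionization mode, and data collection spanned 3 months. Retention time was obtained from adduct peaks picked computationally and each checked manually.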

| Structure (SMILES) | RP-LC retention time |
| --- | --- |
| CC(C)Oc1ccc(-c2noc(-c3nn(-c4cccc(F)c4)ccc3=O)n2)cc1 | 1010 s |
| Cc1cc(NC(=O)CSc2nnc(NC(=O)c3ccc4c(c3)OCO4)s2)no1 | 727 s |
| c1cc(CN2CCCCC2c2nncn2CC2CC2)cs1 (stereo not drawn) | 559 s |
| Cc1cc(C)c(CNC(=O)C2CCN(c3cncnc3N3CCOCC3)CC2)c(C)c1 | 681 s |
| CC(C)Cn1cc(CCNC(=O)Nc2ccc(F)cc2)c2cccnc21 | 812 s |
| COc1cccc(N2C(=O)C3N=NN(Cc4nc(-c5ccc(C)c(C)c5)no4)C3C2=O)c1 (stereo not drawn) | 1030 s |
| Cc1ccc2c(c1)C(=O)NC1(CCN(C(=O)c3ccccc3)CC1)N2C | 748 s |
| CCc1nc2cc3c(cc2n1CC(=O)Nc1ccc(OC)cc1)OCCO3 | 640 s |
| Cc1ccc(C2CCCN2C(=O)Cc2ccsc2)cc1 (stereo not drawn) | 632 s |
| CCN(CC)CCNC(=O)CN1C(=O)C2CCCCN2c2ccc(C(=O)N3CCCC3)cc21 (stereo not drawn) | 614 s |
| Cn1cc(C2c3nccn3CCCN2S(=O)(=O)c2cccc(C(F)(F)F)c2)cn1 (stereo not drawn) | 656 s |
| Cc1cc(C(=O)Nc2ccc(N3CCOCC3)cc2)nc2cc(-c3ccsc3)nn12 | 1030 s |
| Cc1cc(N2CCN(C(=O)c3nccc4ccccc34)CC2)nc2nncn12 | 597 s |
| COc1cccc(-c2nc(-c3ccc4c(c3)oc(=O)n4C)no2)c1OC | 959 s |
| CN1CCN(c2ccc(NC(=O)c3ccc(Br)cc3)c(C(=O)O)c2)CC1 | 653 s |
| CCc1ccc(C(O)CN2CCN(c3ncccn3)CC2)cc1 (stereo not drawn) | 621 s |
| CC(C)Cc1cc(-c2nn3c(-c4ccc(Cl)cc4)nnc3s2)n[nH]1 | 1100 s |
| COc1cccc(NC(=O)Cn2c(=O)c(CCC(=O)NC3CCCC3)nc3ccccc32)c1 | 825 s |
| CCOC(=O)c1cnc2nc(C)ccc2c1Nc1ccccc1F | 684 s |
| Cc1ccc(Sc2nccnc2N2CCCC(C(=O)NCc3ccc(F)cc3F)C2)cc1 (stereo not drawn) | 1130 s |
| CCn1cc(-c2nc(CC(=O)Nc3ccccc3OC)cs2)c2cccnc21 | 984 s |
| O=S(=O)(c1cccc(-c2nnc(-c3ccccc3Br)o2)c1)N1CCCC1 | 1040 s |

| Structure (SMILES) | RP-LC retention time |
| --- | --- |
| Cc1cccc(N(C)C(=O)Cc2c(C(=O)O)c(C)cn2C)c1 | 739 s |
| Cc1ccc(Nc2nc(C(=O)NCCc3cccs3)nc3ccccc23)cc1 | 840 s |
| O=C(CN1C(=O)CCCc2cc(S(=O)(=O)N3CCOCC3)ccc21)N1CCc2ccccc2C1 | 786 s |
| Cc1scc2nc(C(=O)Nc3cccc(F)c3)nc(N3CCCC3)c12 | 567 s |
| Cc1noc(C)c1CN1CCN(C(=O)Cn2c(=O)oc3ccccc32)CC1 | 550 s |
| CCOC(=O)NCCS(=O)(=O)N1CCN(c2ccc(OC)cc2)CC1 | 695 s |
| Cc1ccc(NC2CC(=O)N(c3cccc([N+](=O)[O-])c3)C2=O)cc1 (stereo not drawn) | 882 s |
| CN(C)c1cc(OC2CCN(C(=O)c3c[nH]c4ccccc34)C2)ncn1 (stereo not drawn) | 604 s |
| CCn1c(C(=O)N2CCCC(C(=O)N3CCN(c4ccccc4)CC3)C2)cc2sccc21 (stereo not drawn) | 970 s |
| Cc1cc(NC(=O)c2ncccn2)no1 | 577 s |
| CCOC(=O)C1CCN(S(=O)(=O)c2cccc3nsnc23)CC1 | 810 s |
| O=c1n(CCc2ccccc2)nc2ccc(S(=O)(=O)N3CCOCC3)cn12 | 809 s |
| Cc1csc(-c2nnc(Nc3ccc(Oc4ncccc4-c4ccnc(N)n4)cc3)c3ccccc23)c1 | 731 s |
| CCCN1CCN(c2cc(C(=O)O)c3cc(NS(=O)(=O)c4ccccc4Cl)ccc3n2)CC1 | 595 s |
| COC(=O)C1=CN(c2ccc(F)c(F)c2)c2ccccc2S1(=O)=O | 789 s |
| Cc1ccc(-c2cc3c4nnc(CCC(=O)N5CCN(C(=O)c6ccco6)CC5)n4ccn3n2)cc1C | 759 s |
| CCCn1cc(C(=O)NCCN(C)C)c(S(=O)(=O)N2CCN(c3ccc(Cl)cc3)CC2)n1 | 730 s |
| O=C(Nc1ccc(Cl)cc1)C1CCN(C(=O)C2Sc3ccccc3NC2=O)CC1 (stereo not drawn) | 819 s |
| CCOc1ccc(-c2noc(Cc3nc(-c4ccc5c(c4)OCO5)cs3)n2)cc1 | 1200 s |
| Cn1cccc1CN1CCCC(COc2ccccc2C(=O)N2CCCC2)C1 (stereo not drawn) | 644 s |
| Cc1nn(-c2ccc(C(=O)N3CCN(C)CC3)cc2)c2c1C(=O)CC(C)(C)C2 | 593 s |
| Cc1c2ccncc2c(C)c2c1sc1ccccc12 | 714 s |

| Structure (SMILES) | RP-LC retention time |
| --- | --- |
| Cn1c(CC2CCN(C(=O)C3CC(=O)N(C4CCCCCC4)C3)C2)nc2cccnc21 (stereo not drawn) | 599 s |
| CCCN(CC1CC1)C(=O)CCC1CCCN(S(=O)(=O)c2ccc(C)cc2)C1 (stereo not drawn) | 1120 s |
| CC1CCCN(CCCNC(=O)c2nc3nc(-c4ccco4)cc(C(F)(F)F)n3n2)C1 (stereo not drawn) | 641 s |
| CCOC(=O)c1ccc(NC(=O)Cn2c(C)nc3c(sc4nc(-c5ccccc5)ccc43)c2=O)cc1 | 1100 s |
| O=C(CCn1cnc2ccccc2c1=O)N1CCN(CCn2cccn2)CC1 | 539 s |
| CCc1cccc(C)c1Nc1c(-c2ccc(Cl)cc2)nc2nc(C)cc(C)n12 | 985 s |
| COc1ccccc1N1CCN(C(=O)c2cn(-c3cc(N4CCCCC4)ncn3)cn2)CC1 | 856 s |
| Cc1nnc2cc(N3CCN(S(=O)(=O)c4cccs4)CC3)cnn12 | 636 s |
| CCc1cccc(NC(=O)Nc2cnn(-c3ncc(N4CCCC4)cn3)c2)c1 | 749 s |
| Cc1ccc(NC(=O)CN2C(=O)CCc3cc(S(=O)(=O)N4CCCCC4C)ccc32)cc1N(C)C (stereo not drawn) | 676 s |
| COC(=O)c1cc2c(=O)n(-c3cc(OC)c(OC)c(OC)c3)ccc2nc1C | 751 s |
| CCOc1ccccc1NC(=O)N1CCC2(CC1)NC(=O)c1ccc(F)cc1N2C | 817 s |
| Cc1nc(-c2cc(S(=O)(=O)Nc3cccc(Cl)c3F)c(C)s2)cs1 | 1030 s |
| CCN1CCCc2cc(C(=O)NCc3ccc(OC)cc3OC)sc21 | 973 s |
| CC(=O)Nc1ccc(C2(C(=O)NCc3ccccc3C)CCC2)cc1 | 791 s |
| Cc1nc(Nc2ccc(Br)cn2)sc1C(=O)NCCN1CCCC1 | 628 s |
| CC(C)NC(=O)c1ccc(OCC2CCN(C(=O)c3ccccc3C(F)(F)F)CC2)cc1 | 899 s |
| O=C(C1CCCN(c2cnc3nccnc3c2)C1)N1CCN(c2ccccc2)CC1 (stereo not drawn) | 715 s |
| O=C(NCC1(c2nc(-c3ccccc3)cs2)CCOCC1)c1cccc(-c2noc(C(F)(F)F)n2)c1 | 1310 s |
| COc1ccc(NC(=O)N2CCCC2c2nc(-c3cccc(C)c3)no2)cc1 (stereo not drawn) | 827 s |
| CCCc1noc(-c2ccc3nnc(CC(=O)NC4CCCC4)n3c2)n1 | 922 s |
| COc1ccc(CNS(=O)(=O)c2cc3n(c2)CCN(C(C)C)C3=O)cc1 | 712 s |

| Structure (SMILES) | RP-LC retention time |
| --- | --- |
| Cc1ccc(CNC(=O)C2(C)Cn3nc(C(=O)NCCCN4CCCCCC4)cc3C(=O)N2C)cc1 (stereo not drawn) | 617 s |
| Cc1cc(C)c(NC(=O)Cn2nc3cc(-c4ccccc4)nc(C)n3c2=O)c(C)c1 | 985 s |
| CCc1nc(-c2ccc(OC3CCN(C(=O)c4sc(C)nc4C)C3)cc2)no1 (stereo not drawn) | 696 s |
| CCn1cc(-c2ccc(OC)cc2)cc1C(=O)N1CCCN(C)CC1 | 627 s |
| COc1ccc(-c2nc(CN3C(=O)C(O)(c4cccc(F)c4)c4ccccc43)c(C)o2)cc1 (stereo not drawn) | 1040 s |
| NS(=O)(=O)c1ccc2nc(NC(=O)C3=COCCO3)sc2c1 | 613 s |
| Cc1nn(C(C)C(=O)NCCN2CCOCC2)c(=O)c2nn(-c3ccccc3)c(C)c12 (stereo not drawn) | 615 s |
| Cc1sc(C)c(S(=O)(=O)NCc2ccc(N(C)C)cc2)c1-c1cc(C(F)(F)F)on1 | 960 s |
| CCn1c(C(=O)Nc2ccc(C)cc2C)cc2sc(Cl)cc21 | 1240 s |
| CCOC(=O)c1noc2ncnc(NCCCN3CCCc4ccccc43)c12 | 1240 s |
| Cc1ccc2c(c1)N(S(C)(=O)=O)CCC(C(=O)Nc1ccccc1F)O2 (stereo not drawn) | 918 s |
| Cc1ccc(Nc2c(-c3ccccc3)nc3ncccn23)c(C)c1 | 786 s |
| CN(C)c1ccc(-c2nc3ccccc3s2)cc1 | 1130 s |
| Cc1ccc2nc(-c3ccc(N(C)C)cc3)c(Nc3ccccc3C)n2c1 | 812 s |
| Cc1ccccc1Cn1c(CN2CCC(C(=O)NC(C)Cc3ccco3)CC2)cc2ccccc21 (stereo not drawn) | 833 s |
| c1cc(-c2noc(C3CCCCC3)n2)cc(N2CCOCC2)n1 | 1010 s |
| CCc1nc(-c2c(C)cc(C)nc2NC(=O)c2cccc(Br)c2)no1 | 898 s |
| O=C(NCc1ccco1)C1CCN(c2cnn(Cc3ccccc3)c(=O)c2)CC1 | 723 s |
| Cc1ccc(-c2nnc(-c3nc(N4CCCCCC4)c4ccccc4n3)o2)cc1 | 750 s |
| Cc1noc(-c2ccc(NC(=O)c3cccs3)cc2)n1 | 776 s |
| COc1ccc(C(C)NC(=O)c2c(C)sc3ccn(C)c(=O)c23)cc1 (stereo not drawn) | 735 s |
| Cc1oc(-c2[nH]ncc2C(=O)N2CCOCC2)cc1S(=O)(=O)N1CCC(C)CC1 | 703 s |
